Measurements from patent US12279521B2, “Materials for organic electroluminescent devices” (Merck Patent GmbH, priority 2019, dated 2025).
≈ marks a conversion by molar mass, not a printed value. Like-named read-outs stand apart in the source and are kept apart here.

Tests used:
[1] = Solubility in organic solvents via HPTLC (after 24 hours and 7 days); assay type: physicochemical; details: for solubility at 24 h: 25 °C; for solubility at 24 h / solubility at 7 days: organic solvent or mixture, thermodynamic from solid; for solubility at 24 h / Solubility after 24 hours, Cyclohexylbenzene / Solubility after 24 hours, Mesitylene / Solubility after 24 hours, Tetralin / Solubility after 24 hours, Toluene: room temperature; for solubility at 7 days / Solubility after 7 days, Cyclohexylbenzene / Solubility after 7 days, Mesitylene / Solubility after 7 days, Tetralin / Solubility after 7 days, Toluene: 7 days storage at room temperature
Method: One way of processing the materials of the invention is from solution. In addition, it is a feature of materials of the invention that their […] stability is elevated, as apparent from the long-term solubility data in Table 1.
Method of Determining Solubility Via HPTLC
Sample preparation: The material is weighed out in two 25 mg portions (W1, W2), 0.5 ml of solvent is added, and the mixture is shaken at 60° C. for 60 minutes and then at 25° C. and 600 rpm for 24 h. When the solution is clear, more solid material is added until a saturated solution is formed. After being cooled to room temperature, the samples are filtered through a syringe filter (0.2 μm). The solutions are stored in glass vials at room temperature for 7 days, and the solubility is determined by HPTLC on days 1 and 7. For this purpose, the filtered solutions are diluted.
Calibration: Making up a standard solution: about 6 mg of substance are dissolved in 20 ml of 2-methyl-THF. If it is not possible to dissolve the material under these conditions, the concentration can be reduced. The stock solution is diluted for the calibration (standardization).
Chromatographic conditions (HPTLC): plate: HPTLC RP 18 F254, 10×20 cm eluent: methanol/2-methyl-THF 70/30 (V/V)
HPTLC measurement: The HPTLC plate is scanned by a TLC scanner, peaks are integrated and a calibration function is determined.

[2] = Baking of emission layer film at elevated temperature: state of film; assay type: physicochemical; details: for State of film after baking at elevated temp.: EML mixture per Table 5
Excerpt: The production of the corresponding OLED components is described below.
The emission layer is composed of at least one matrix material (host material) and an emitting dopant (emitter). In addition, it is possible to use mixtures of a plurality of matrix materials and co-dopants. Details given in such a form as TMM-A (92%):dopant (8%) mean here that the material TMM-A is present in the emission layer in a proportion by weight of 92% and dopant in a proportion by weight of 8%. The mixture for the emission layer is dissolved in toluene or optionally chlorobenzene. The typical solids content of such solutions is about 17 g/I when, as here, the layer thickness of 60 nm which is typical of a device is to be achieved by means of spin-coating. The layers are spun on in an inert gas atmosphere, argon in the present case, and baked for 10 minutes.

[3] = cyclohexylbenzene, read-out: Solubility after 24 hours, Cyclohexylbenzene
[4] = mesitylene, read-out: Solubility after 24 hours, Mesitylene
[5] = tetralin, read-out: Solubility after 24 hours, Tetralin
[6] = toluene, read-out: Solubility after 24 hours, Toluene
[7] = cyclohexylbenzene, read-out: Solubility after 7 days, Cyclohexylbenzene
[8] = mesitylene, read-out: Solubility after 7 days, Mesitylene
[9] = tetralin, read-out: Solubility after 7 days, Tetralin
[10] = toluene, read-out: Solubility after 7 days, Toluene
[11] = Ref. temp. 150, elevated temp. 170
[12] = Ref. temp. 150, elevated temp. 180
[13] = Ref. temp. 160, elevated temp. 170
[14] = Ref. temp. 160, elevated temp. 180

solubility at 24 h [1, 3] [mg/mL] | solubility at 24 h [1, 4] [mg/mL] | solubility at 24 h [1, 5] [mg/mL] | solubility at 24 h [1, 6] [mg/mL] | solubility at 7 days [1, 7] [mg/mL] | solubility at 7 days [1, 8] [mg/mL] | solubility at 7 days [1, 9] [mg/mL] | solubility at 7 days [1, 10] [mg/mL] | Solubility after 24 hours, Cyclohexylbenzene ([1]; cyclohexylbenzene) [mg/mL] | Solubility after 7 days, Cyclohexylbenzene ([1]; cyclohexylbenzene) [mg/mL] | Solubility after 24 hours, Mesitylene ([1]; mesitylene) [mg/mL] | Solubility after 7 days, Mesitylene ([1]; mesitylene) [mg/mL] | Solubility after 24 hours, Tetralin ([1]; tetralin) [mg/mL] | Solubility after 7 days, Tetralin ([1]; tetralin) [mg/mL] | Solubility after 24 hours, Toluene ([1]; toluene) [mg/mL] | Solubility after 7 days, Toluene ([1]; toluene) [mg/mL] | State of film after baking at elevated temp. [2, 12] | SMILES | also measured
 |  |  |  |  |  |  |  | <40 | <40 | <30 | <30 | <40 | <40 | <30 | <30 |  | Cc1ccc2c(c1)-c1c(-c3cccc(-c4ccccc4)c3)cccc1C2(c1cccc(-c2cccc3c2-c2ccccc2C3(C)C)c1)c1cccc(-c2cccc3c2-c2ccccc2C3(C)C)c1 [Compound M-0172] | State of film after baking at elevated temp. [2, 11]: clear
< 50 | > 50 | > 50 | > 50 | < 50 | > 50 | > 50 | > 50 |  |  |  |  |  |  |  |  | clear | c1ccc(-c2cc(-c3ccccc3)cc(-c3cccc(-c4cccc(C5(c6cccc(-c7cccc(-c8cc(-c9ccccc9)cc(-c9ccccc9)c8)c7)c6)c6ccccc6-c6c(-c7cccc(-c8ccccc8)c7)cccc65)c4)c3)c2)cc1 [Compound M-0162] | 
 |  |  |  |  |  |  |  | >50 | >50 | >50 | >50 | >50 | <50 | >50 | >50 |  | c1ccc(-c2cccc(-c3cc(-c4cccc(-c5ccccc5)c4)cc(C4(c5cc(-c6cccc(-c7ccccc7)c6)cc(-c6cccc(-c7ccccc7)c6)c5)c5ccccc5-c5c(-c6ccccc6)cccc54)c3)c2)cc1 [Compound M-0005] | solubility in cyclohexylbenzene compared with B-1 ([1]; cyclohexylbenzene, versus B-1): significantly better; long-term stability of the solution in mesitylene compared with B-1 ([1]; mesitylene, versus B-1): significantly better; State of film after baking at elevated temp. [2, 11]: clear; State of film after baking at elevated temp. [2, 13]: clear
 |  |  |  |  |  |  |  | <1 | <1 | >50 | 50 (≈ 49.8 mM) | >50 | >50 | >50 | >50 | clear | c1ccc(-c2cc(-c3ccccc3)cc(-c3cccc(-c4cccc(C5(c6cccc(-c7cccc(-c8cc(-c9ccccc9)cc(-c9ccccc9)c8)c7)c6)c6ccccc6-c6c(-c7ccccc7)cccc65)c4)c3)c2)cc1 [Compound M-0002] | State of film after baking at elevated temp. [2, 14]: clear; baking of the layer at higher temperature, cloudiness, compared with B-2 ([2]; versus B-2): can be baked at higher temperature without cloudiness
 |  |  |  |  |  |  |  | <30 | <25 | <20 | <20 | <30 | <25 | <20 | <20 | clear | c1ccc(-c2cc(-c3ccccc3)cc(-c3cccc(-c4cccc(C5(c6cccc(-c7cccc(-c8cc(-c9ccccc9)cc(-c9ccccc9)c8)c7)c6)c6cc7c(cc6-c6c5ccc5c6-c6ccccc6C56c5ccccc5-c5ccccc56)OCO7)c4)c3)c2)cc1 [Compound M-0226] | solubility in toluene and mesitylene compared with B-2 ([1]; toluene and mesitylene, versus B-2): significantly better; long-term stability of the solutions compared with B-2 ([1]; versus B-2): significantly better
 |  |  |  |  |  |  |  | <50 | <50 | <50 | <50 | >50 | >50 | <50 | <50 | clear | c1ccc(-c2cccc(-c3cc(-c4cccc(-c5ccccc5)c4)cc(C4(c5cc(-c6cccc(-c7ccccc7)c6)cc(-c6cccc(-c7ccccc7)c6)c5)c5ccccc5-c5c(-c6ccccc6-c6ccccc6)cccc54)c3)c2)cc1 [Compound M-0043] | 
> 50 | > 50 | > 50 | > 50 | > 50 | > 50 | > 50 | > 50 |  |  |  |  |  |  |  |  | clear | Cc1cc(C)c(-c2cccc3c2-c2ccccc2C3(c2cc(-c3cc(-c4ccc(C(C)(C)C)cc4)cc(-c4ccc(C(C)(C)C)cc4)c3)cc(-c3cc(-c4ccc(C(C)(C)C)cc4)cc(-c4ccc(C(C)(C)C)cc4)c3)c2)c2cc(-c3cc(-c4ccc(C(C)(C)C)cc4)cc(-c4ccc(C(C)(C)C)cc4)c3)cc(-c3cc(-c4ccc(C(C)(C)C)cc4)cc(-c4ccc(C(C)(C)C)cc4)c3)c2)c(C)c1 [Compound M-0086] | 

More lines, now with the values behind:

SMILES | solubility at 24 h [1, 3] [mg/mL] | solubility at 24 h [1, 4] [mg/mL] | solubility at 24 h [1, 5] [mg/mL] | solubility at 24 h [1, 6] [mg/mL] | solubility at 7 days [1, 7] [mg/mL] | solubility at 7 days [1, 8] [mg/mL] | solubility at 7 days [1, 9] [mg/mL] | solubility at 7 days [1, 10] [mg/mL] | Solubility after 24 hours, Cyclohexylbenzene ([1]; cyclohexylbenzene) [mg/mL] | Solubility after 7 days, Cyclohexylbenzene ([1]; cyclohexylbenzene) [mg/mL] | Solubility after 24 hours, Mesitylene ([1]; mesitylene) [mg/mL] | Solubility after 7 days, Mesitylene ([1]; mesitylene) [mg/mL] | Solubility after 24 hours, Tetralin ([1]; tetralin) [mg/mL] | Solubility after 7 days, Tetralin ([1]; tetralin) [mg/mL] | Solubility after 24 hours, Toluene ([1]; toluene) [mg/mL] | Solubility after 7 days, Toluene ([1]; toluene) [mg/mL] | State of film after baking at elevated temp. [2, 12] | also measured
c1ccc(-c2cccc(-c3cc(-c4cccc(-c5ccccc5)c4)cc(C4(c5cc(-c6cccc(-c7ccccc7)c6)cc(-c6cccc(-c7ccccc7)c6)c5)c5ccccc5-c5ccc(-c6ccccc6)cc54)c3)c2)cc1 [Compound B-3, reference compound] | > 50 | < 50 | < 50 | > 50 | > 50 | < 40 | < 50 | > 50 |  |  |  |  |  |  |  |  |  | 
c1ccc(-c2cc(-c3ccccc3)cc(-c3cccc(-c4cccc(C5(c6cccc(-c7cccc(-c8cc(-c9ccccc9)cc(-c9ccccc9)c8)c7)c6)c6ccccc6-c6ccccc65)c4)c3)c2)cc1 [Compound B-2, reference compound] | > 50 | < 1 | > 50 | < 1 | < 1 | < 1 | < 20 | < 1 |  |  |  |  |  |  |  |  |  | State of film after baking at elevated temp. [2, 14]: slightly cloudy
c1ccc(-c2cccc(-c3cc(-c4cccc(-c5ccccc5)c4)cc(C4(c5cc(-c6cccc(-c7ccccc7)c6)cc(-c6cccc(-c7ccccc7)c6)c5)c5ccccc5-c5ccccc54)c3)c2)cc1 [Compound B-1, reference compound] | < 20 | > 50 | > 50 | > 50 | < 20 | < 40 | > 50 | > 50 |  |  |  |  |  |  |  |  | cloudy | State of film after baking at elevated temp. [2, 13]: slightly cloudy; State of film after baking at elevated temp. [2, 14]: cloudy
c1ccc(-c2cccc(-c3cc(-c4ccccc4)cc(-c4cccc(C5(c6cccc(-c7cc(-c8ccccc8)cc(-c8cccc(-c9ccccc9)c8)c7)c6)c6ccccc6-c6ccccc65)c4)c3)c2)cc1 [Compound B-4, reference compound] |  |  |  |  |  |  |  |  |  |  |  |  |  |  |  |  | slightly cloudy | 
